Data reported in PubChem BioAssay (NCI).
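Five concentrations, 48 hours, 96-well plates. GI50 is the concentration that inhibits growth by half. TGI denotes the concentration required for complete inhibition of growth.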

Legend:
Test in all cases: DTP human tumour cell line panel, 48 h
HOP-92 NSCLC = tested on: HOP-92 NSCLC
MDA-MB-435 = tested on: MDA-MB-435
UACC-257 melanoma = tested on: UACC-257 melanoma
UACC-62 melanoma = tested on: UACC-62 melanoma
SK-MEL-5 melanoma = tested on: SK-MEL-5 melanoma
KM12 colon = tested on: KM12 colon
SR leukemia = tested on: SR leukemia
TK-10 renal = tested on: TK-10 renal
SNB-19 CNS = tested on: SNB-19 CNS
HOP-62 NSCLC = tested on: HOP-62 NSCLC

Structure (SMILES) | TGI (HOP-92 NSCLC) [µM] | TGI (MDA-MB-435) [µM] | TGI (UACC-257 melanoma) [µM] | TGI (UACC-62 melanoma) [µM] | TGI (SK-MEL-5 melanoma) [µM] | TGI (KM12 colon) [µM] | TGI (SR leukemia) [µM] | TGI (TK-10 renal) [µM] | TGI (SNB-19 CNS) [µM] | TGI (HOP-62 NSCLC) [µM] | GI50 (HOP-92 NSCLC) [µM] | GI50 (MDA-MB-435) [µM] | GI50 (UACC-257 melanoma) [µM] | GI50 (UACC-62 melanoma) [µM] | GI50 (SK-MEL-5 melanoma) [µM] | GI50 (KM12 colon) [µM] | GI50 (SR leukemia) [µM] | GI50 (TK-10 renal) [µM] | GI50 (SNB-19 CNS) [µM] | GI50 (HOP-62 NSCLC) [µM]
CCOC(=O)C1=C(C)NC(=O)NC1c1coc2cc(C)cc(C)c2c1=O (stereo not drawn) | > 100 | 45.4 | > 100 | > 100 | > 100 | > 100 | > 79.8 | > 100 | > 100 | > 100 | – | – | – | – | – | – | – | – | – | –
CCCCN(CCCC)CCCN=c1nc2c(c(N)n1-c1ccccc1)c(=S)n(-c1ccccc1)c(=S)n2-c1ccccc1 | 0.83 | 0.93 | 1.27 | 2.02 | 2.3 | 1.46 | 1.46 | 2.69 | 2.74 | 3.03 | 0.229 | 0.301 | 0.609 | 0.714 | 1.02 | 0.415 | 0.273 | 1.28 | 1.29 | 1.45
Clc1ccc(-c2nn3ncccc3c2-c2ccnc(Nc3ccccc3)n2)cc1 | > 21.6 | > 25 | > 25 | > 25 | > 25 | > 25 | > 25 | > 20.4 | > 25 | > 25 | 2.89 | 10.1 | > 15.1 | > 13 | > 12.4 | 9.03 | 7.66 | 7.43 | > 14.4 | > 21.4
C[C@H]1CC[C@@H]2[C@@H](C)[C@H]3[C@H](C[C@H]4[C@@H]5CC=C6C[C@@H](O)CC[C@]6(C)[C@H]5C[C@H](O)[C@]34C)N2C1 | > 100 | > 100 | > 100 | > 100 | > 100 | > 100 | > 100 | > 100 | > 100 | > 100 | – | – | – | – | – | – | – | – | – | –
CC[CH2][Sn]([Cl])([Cl])[CH2]CC | 23.7 | 26.9 | 19.2 | 17.5 | 22.6 | 30.9 | 80.7 | 11.1 | 25.9 | 31.3 | 10.6 | 12.5 | 4.59 | 4.19 | 10.6 | 16 | 3.38 | 3.16 | 13.2 | 16.6
COc1ccc(C2=C(c3cc(OC)c(OC)c(OC)c3)C(=O)CC2)cc1 | 54.1 | 0.12 | > 100 | > 100 | 6.24 | – | > 100 | > 100 | > 100 | > 100 | 1.68 | 0.0291 | – | 0.0812 | 0.123 | 0.0719 | 0.0335 | 12.3 | 0.41 | 0.355
CC[C@@H](C(=O)[C@@H](C)[C@@H](O)[C@H](C)[C@@H]1O[C@@H]([C@@H](CC)C(=O)O)CC[C@@H]1C)[C@H]1OC2(C=C[C@@H](O)[C@]3(CC[C@@](C)([C@H]4CC[C@](O)(CC)[C@H](C)O4)O3)O2)[C@H](C)C[C@@H]1C (stereo partly drawn) | 5.45 | 1.51 | 5.49 | 1.55 | 0.534 | 8.43 | 1.78 | 20.1 | > 14.2 | 20.7 | 0.0829 | 0.568 | 0.241 | 0.701 | 0.16 | 0.766 | 0.0815 | 1.25 | 0.577 | 0.447
N#CN1CCC[C@H]1C(=O)N1CCc2c(-c3[nH]nc4ncccc34)cccc21 | 0.0809 | < 0.01 | 14.5 | 12.2 | 0.126 | 10.1 | 20 | 4.17 | 21.5 | 10.6 | < 0.01 | < 0.01 | < 0.01 | < 0.01 | 0.0606 | < 0.01 | < 0.01 | 0.525 | 0.157 | 0.0222
COC(=O)[C@@]1(C)CC[C@]2(C)CC[C@]3(C)C4=CC=C5C(=CC(=O)C(O)=C5C)[C@]4(C)CC[C@@]3(C)[C@@H]2C1 | 0.362 | 0.503 | 0.767 | 0.467 | 0.57 | 1.49 | 0.564 | 0.449 | 0.936 | 1.54 | 0.163 | 0.195 | 0.279 | 0.202 | 0.2 | 0.369 | 0.19 | 0.185 | 0.276 | 0.483
CC(=O)OC(C)(C)N=Nc1ccc(Br)cc1 | 67.6 | > 100 | 66.2 | > 100 | 6.26 | > 100 | 43.3 | > 87.9 | > 100 | > 100 | – | – | – | – | – | – | – | – | – | –
CN(C)CCCNc1nccc(-c2c(-c3ccc(F)cc3)nn3cc(C(F)(F)F)ccc23)n1 | > 25 | 15.2 | 8.42 | 11.1 | 6.75 | > 25 | 12.6 | > 25 | > 25 | > 25 | 3.61 | 5.46 | 4.22 | 4.88 | 3.48 | 8.3 | 5.15 | 12.9 | > 19.6 | 8.53
CCC1CC(=O)N(SCC(N)C(=O)O)C1=O (stereo not drawn) | > 100 | > 100 | > 100 | > 100 | > 100 | > 100 | > 100 | > 100 | > 100 | > 100 | – | – | – | – | – | – | – | – | – | –
O=C(c1cccs1)c1c(C(F)(F)F)n([O-])c2ccc(F)cc2[n+]1=O | 2.48 | 2.87 | 2.91 | 2.81 | 2.51 | 0.35 | 0.558 | 3.06 | 2.86 | 3.13 | 0.914 | 1.31 | 1.53 | 1.41 | 1.22 | 0.163 | 0.148 | 1.41 | 1.38 | 1.58
